Test results taken from patent publication US20230062486A1, “KRAS G12C INHIBITOR AND PHARMACEUTICAL USE THEREOF” (Betta Pharmaceuticals Co., LTD, priority 2019, published 2023).
pIC50: −log10 of the molar value.

Tests used:
MIA-PACA-2 cells = test: Cell proliferation assay, MIA-PACA-2 cells (Cell-titer Glo); assay type: cell-based; settings: Homo sapiens; inhibiting MIA-PACA-2 cells, 96-well ultra-low adsorption plate, 96 h incubation, Cell-titer Glo luminescence
Experimental: (§1) Pave the MIA-PACA-2 cells into a 96-well ultra-low adsorption plate at 600 cells, 160 μL/well. After incubating overnight, compound solutions of gradient concentration was prepared, and added 40 μL of DMSO solution of the test compound of each concentration to the cells of each well. The final concentration of the compound is 10000, 2000, 400, 80, 16, 3.2, 0.64, 0.12, 0.025, 0 nM (the final concentration of DMSO is 0.25%). Incubated for 96 h at 37° C. and 5% CO2. 50 μL of Cell-titer Glo working solution was added to each well, shaked and mixed, and incubated at room temperature for 10 minutes. The multi-functional microplate reader read the luminescence value, and converted the luminescence value reading into inhibition percentage.
(§2) Inhibition percentage=(maximum value−reading)/(maximum value−minimum value)*100.
(§3) The “maximum value” was the DMSO control, the “minimum value” indicates the cell-free control group.
(§4) Graphpad Prism software was used to perform curve fitting and obtain IC50 value.
Refer to Table 2 for the IC50 data of some compounds in the examples inhibiting MIA-PACA-2 cells.

H358 cells = test: Cell proliferation assay, H358 cells (Cell-titer Glo); assay type: cell-based; settings: Homo sapiens, NCI-H358; inhibiting H358 cells, 96-well ultra-low adsorption plate, 96 h incubation, Cell-titer Glo luminescence
Experimental: as §1, with “the H358” for “the MIA-PACA-2”, “cells on” for “cells into”, “plate with 2000 cells and 190” for “plate at 600 cells, 160”, “added 10” for “added 40”, “10000, 3333.3, 1111.1, 370.4, 123.5, 41.2, 13.7, 4.6, 1.5,” for “10000, 2000, 400, 80, 16, 3.2, 0.64, 0.12, 0.025,”
as §2, §3, §4
Refer to table 3 for the IC50 data of some compounds in the Examples for inhibiting H358 cells.

pIC50 (MIA-PACA-2 cells)	pIC50 (H358 cells)	SMILES
≥ 6.00		C=CC(=O)N1CCn2c(nc(-c3ccccc3C(C)C)c2-c2cc(F)c(-c3c(F)ccc(Cl)c3O)c(Cl)c2)C1 [Example 13, 1-(3-(2,3′-dichloro-6,6′-difluoro-2′-hydroxy-[1,1′-biphenyl]-4-yl)-2-(2-isopropylphenyl)-5,6-dihydroimidazo[1,2-a]pyrazin-7(8H)-yl)prop-2-en-1-one]
< 5.00	< 5.00	C=C(F)C(=O)N1CCn2c(nnc2-c2cc(F)c(-c3c(O)cccc3F)c(Cl)c2)C1 [Example 4, 1-(3-(2-chloro-2′,6-difluoro-6′-hydroxy-[1,1′-biphenyl]-4-yl)-5,6-dihydro-[1,2,4]triazolo[4,3-a]pyrazin-7(8H)-yl)-2-fluoroprop-2-en-1-one]
5.00 to 6.00		C=CC(=O)N1CCn2c(nc(-c3ccccc3C(C)C)c2-c2cc(F)c(-c3c(O)c(Cl)cc(Cl)c3F)c(Cl)c2)C1 [Example 14, 1-(2-(2-isopropylphenyl)-3-(2,3′,5′-trichloro-2′,6-difluoro-6′-hydroxy-[1,1′-biphenyl]-4-yl)-5,6-dihydroimidazo[1,2-a]pyrazin-7(8H)-yl)prop-2-en-1-one]
≥ 6.00	≥ 6.00	C=CC(=O)N1CCn2c(nnc2-c2cc(F)c(-c3c(O)c(Cl)cc(Cl)c3F)c(Cl)c2)C1 [Example 3, 1-(3-(2,3′,5′-trichloro-2′,6-difluoro-6′-hydroxy-[1,1′-biphenyl]-4-yl)-5,6-dihydro-[1,2,4]triazolo[4,3-a]pyrazin-7(8H)-yl)prop-2-en-1-one]
< 5.00		C=CC(=O)N1CCn2c(cnc2-c2cc(F)c(-c3c(O)c(Cl)cc(Cl)c3F)c(Cl)c2)C1 [Example 10, 1-(3-(2,3′,5′-trichloro-2′,6-difluoro-6′-hydroxy-[1,1′-biphenyl]-4-yl)-5,6-dihydroimidazo[1,5-a]pyrazin-7(8H)-yl)prop-2-en-1-one]
≥ 6.00	5.00 to 6.00	C=CC(=O)N1CCn2c(-c3cc(F)c(-c4c(O)cccc4F)c(Cl)c3)cnc2C1 [Example 6, 1-(3-(2-chloro-2′,6-difluoro-6′-hydroxy-[1,1′-biphenyl]-4-yl)-5,6-dihydroimidazo[1,2-a]pyrazin-7(8H)-yl)prop-2-en-1-one]
< 5.00		C=CC(=O)N1CCn2c(nc(-c3ccccc3C(C)C)c2-c2cc(F)c(-c3c(O)cccc3F)c(Cl)c2)C1 [Example 12, 1-(3-(2-chloro-2′,6-difluoro-6′-hydroxy-[1,1′-biphenyl]-4-yl)-2-(2-isopropylphenyl)-5,6-dihydroimidazo[1,2-a]pyrazin-7(8H)-yl)prop-2-en-1-one]
< 5.00		C=CC(=O)N1CCn2c(-c3cc(F)c(-c4c(F)ccc(Cl)c4O)c(Cl)c3)cnc2C1 [Example 15, 1-(3-(2,3′-dichloro-6,6′-difluoro-2′-hydroxy-[1,1′-biphenyl]-4-yl)-5,6-dihydroimidazo[1,2-a]pyrazin-7(8H)-yl)prop-2-en-1-one]
≥ 6.00		C=CC(=O)N1CCn2c(nnc2-c2cc(Cl)c(-c3c(O)cccc3F)c(OCC(F)(F)F)c2)C1 [Example 17, 1-(3-(2-chloro-2′-fluoro-6′-hydroxy-6-(2,2,2-trifluoroethoxy)-[1,1′-biphenyl]-4-yl)-5,6-dihydro-[1,2,4]triazolo[4,3-a]pyrazin-7(8H)-yl)prop-2-en-1-one]
5.00 to 6.00	5.00 to 6.00	C=CC(=O)N1CCn2c(nnc2-c2cc(F)c(-c3c(C)ccc4[nH]ncc34)c(Cl)c2)C1 [Example 5, 1-(3-(3-chloro-5-fluoro-4-(5-methyl-1H-indazol-4-yl)phenyl)-5,6-dihydro-[1,2,4]triazolo[4,3-a]pyrazin-7(8H)-yl)prop-2-en-1-one]
5.00 to 6.00		C=CC(=O)N1CCn2c(cnc2-c2cc(F)c(-c3c(F)ccc(Cl)c3O)c(Cl)c2)C1 [Example 9, 1-(3-(2,3′-dichloro-6,6′-difluoro-2′-hydroxy-[1,1′-biphenyl]-4-yl)-5,6-dihydroimidazo[1,5-a]pyrazin-7(8H)-yl)prop-2-en-1-one]
≥ 6.00	≥ 6.00	C=CC(=O)N1CCn2c(nnc2-c2cc(F)c(-c3c(O)ccc(Cl)c3F)c(Cl)c2)C1 [Example 2, 1-(3-(2,3′-dichloro-2′,6-difluoro-6′-hydroxy-[1,1′-biphenyl]-4-yl)-5,6-dihydro-[1,2,4]triazolo[4,3-a]pyrazin-7(8H)-yl)prop-2-en-1-one]
5.00 to 6.00		C=CC(=O)N1CCn2c(nnc2-c2cc(Cl)c(-c3c(F)ccc(Cl)c3O)c(OCC(F)(F)F)c2)C1 [Example 16, 1-(3-(2,3′-dichloro-6′-fluoro-2′-hydroxy-6-(2,2,2-trifluoroethoxy)-[1,1′-biphenyl]-4-yl)-5,6-dihydro-[1,2,4]triazolo[4,3-a]pyrazin-7(8H)-yl)prop-2-en-1-one]
< 5.00		C=CC(=O)N1CCn2c(nnc2-c2cc(F)c(-c3c(O)cccc3F)c(C=C)c2)C1 [Example 11, 1-(3-(2,2′-difluoro-6′-hydroxy-6-vinyl-[1,1′-biphenyl]-4-yl)-5,6-dihydro-[1,2,4]triazolo[4,3-a]pyrazin-7(8H)-yl)prop-2-en-1-one]
5.00 to 6.00	5.00 to 6.00	C=CC(=O)N1CCn2c(cnc2-c2cc(F)c(-c3c(O)cccc3F)c(Cl)c2)C1 [Example 8, 1-(3-(2-chloro-2′,6-difluoro-6′-hydroxy-[1,1′-biphenyl]-4-yl)-5,6-dihydroimidazo[1,5-a]pyrazin-7(8H)-yl)prop-2-en-1-one]
< 5.00	< 5.00	C=CC(=O)N1CCn2c(nnc2-c2cc(F)c(-c3c(F)ccc(Cl)c3N)c(Cl)c2)C1 [Example 7, 1-(3-(2′-amino-2,3′-dichloro-6,6′-difluoro-[1,1′-biphenyl]-4-yl)-5,6-dihydro-[1,2,4]triazolo[4,3-a]pyrazin-7(8H)-yl)prop-2-en-1-one]
5.00 to 6.00	5.00 to 6.00	C=CC(=O)N1CCn2c(nnc2-c2cc(F)c(-c3c(O)cccc3F)c(Cl)c2)C1 [Example 1, 1-(3-(2-chloro-2′,6-difluoro-6′-hydroxy-[1,1′-biphenyl]-4-yl)-5,6-dihydro-[1,2,4]triazolo[4,3-a]pyrazin-7(8H)-yl)prop-2-en-1-one]
< 5.00		C=CC(=O)N1CCn2c(nc(C(F)(F)F)c2-c2cc(F)c(-c3c(F)ccc(Cl)c3O)c(Cl)c2)C1 [Example 18, 1-(3-(2,3′-dichloro-6,6′-difluoro-2′-hydroxy-[1,1′-biphenyl]-4-yl)-2-(trifluoromethyl)-5,6-dihydroimidazo[1,2-a]pyrazin-7(8H)-yl)prop-2-en-1-one]
